The source of these data is ChEMBL document CHEMBL1148629, “Pyrrolopyridazine MEK inhibitors” (Bioorg Med Chem Lett, 2006).

Where only a bound is given, the exact number is not on record here.

Experiment [1] has as its system COLO 205. In words: Antiproliferative activity against human tumor Colo205 cell line. Format: functional.
Experiment [2] has as its system HT-29. Briefly: Antiproliferative activity against human tumor HT29 cell line. The format is functional.
The target of experiment [3] is Dual specificity mitogen-activated protein kinase kinase 1 (Homo sapiens, UniProt Q02750). Briefly: Inhibitory activity against MEK.
Chain of Dual specificity mitogen-activated protein kinase kinase 1 (Q02750 whole entry): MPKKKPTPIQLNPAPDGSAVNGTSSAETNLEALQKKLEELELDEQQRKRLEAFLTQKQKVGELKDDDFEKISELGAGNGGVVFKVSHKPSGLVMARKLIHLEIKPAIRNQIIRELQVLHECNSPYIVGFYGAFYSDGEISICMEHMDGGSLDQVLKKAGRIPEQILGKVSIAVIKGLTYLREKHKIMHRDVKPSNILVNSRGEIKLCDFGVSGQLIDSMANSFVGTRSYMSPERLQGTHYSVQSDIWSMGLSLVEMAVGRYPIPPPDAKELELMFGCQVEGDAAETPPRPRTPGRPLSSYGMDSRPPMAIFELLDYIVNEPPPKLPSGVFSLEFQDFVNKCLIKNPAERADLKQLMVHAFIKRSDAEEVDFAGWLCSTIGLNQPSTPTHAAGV
For experiment [4], the target named is Vascular endothelial growth factor receptor 2 (Homo sapiens) (UniProt P35968). In words: Inhibitory activity against VEGFR2 upto 50 uM.
Chain of Vascular endothelial growth factor receptor 2 (Homo sapiens) (P35968 whole entry): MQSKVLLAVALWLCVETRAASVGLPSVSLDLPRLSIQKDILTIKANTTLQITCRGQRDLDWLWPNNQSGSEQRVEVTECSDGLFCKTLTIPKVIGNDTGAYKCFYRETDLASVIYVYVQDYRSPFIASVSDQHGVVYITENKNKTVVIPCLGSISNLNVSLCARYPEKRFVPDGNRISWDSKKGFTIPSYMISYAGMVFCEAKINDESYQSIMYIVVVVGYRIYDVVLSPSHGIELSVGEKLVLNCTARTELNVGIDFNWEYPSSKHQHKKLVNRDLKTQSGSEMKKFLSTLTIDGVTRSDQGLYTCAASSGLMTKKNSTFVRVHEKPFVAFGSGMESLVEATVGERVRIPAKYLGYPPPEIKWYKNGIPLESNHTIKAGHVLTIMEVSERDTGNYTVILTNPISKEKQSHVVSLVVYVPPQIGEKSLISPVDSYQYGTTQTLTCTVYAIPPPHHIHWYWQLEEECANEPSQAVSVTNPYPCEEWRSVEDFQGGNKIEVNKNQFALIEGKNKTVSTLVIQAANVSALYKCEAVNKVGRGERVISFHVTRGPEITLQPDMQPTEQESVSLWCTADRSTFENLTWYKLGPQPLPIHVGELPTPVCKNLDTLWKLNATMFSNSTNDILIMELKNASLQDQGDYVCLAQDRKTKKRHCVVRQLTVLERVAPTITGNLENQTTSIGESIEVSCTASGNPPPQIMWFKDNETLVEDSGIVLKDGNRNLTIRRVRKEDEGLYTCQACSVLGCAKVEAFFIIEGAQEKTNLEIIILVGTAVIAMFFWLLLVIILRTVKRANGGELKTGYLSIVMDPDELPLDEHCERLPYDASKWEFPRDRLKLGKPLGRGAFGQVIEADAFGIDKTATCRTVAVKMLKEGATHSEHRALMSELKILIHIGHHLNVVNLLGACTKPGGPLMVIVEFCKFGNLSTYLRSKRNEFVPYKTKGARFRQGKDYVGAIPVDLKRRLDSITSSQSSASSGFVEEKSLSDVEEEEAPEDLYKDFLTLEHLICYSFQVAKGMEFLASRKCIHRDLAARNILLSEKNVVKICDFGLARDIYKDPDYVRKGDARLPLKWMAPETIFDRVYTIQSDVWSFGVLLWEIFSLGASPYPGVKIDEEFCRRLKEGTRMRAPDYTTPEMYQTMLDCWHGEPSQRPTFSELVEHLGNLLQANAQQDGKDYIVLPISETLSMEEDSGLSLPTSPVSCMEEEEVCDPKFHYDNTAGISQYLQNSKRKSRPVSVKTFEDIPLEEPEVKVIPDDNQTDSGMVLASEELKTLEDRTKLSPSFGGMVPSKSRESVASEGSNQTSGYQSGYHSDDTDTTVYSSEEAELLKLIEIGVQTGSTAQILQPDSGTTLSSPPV

On to `Cc1c(NC(=O)c2ccccc2)cn2ncc(C#N)c(Nc3ccc(Oc4ccccc4)cc3)c12`, for which the Activity in experiment [1] was determined as 2.42 µM; in experiment [2] it was 2.13 µM. Besides, the IC50 (commonly the concentration that inhibits the measured activity by half) in experiment [3] is 0.042 µM.
`CC(=O)NCc1cnn2cc(C(=O)O)c(C)c2c1Nc1ccc(Oc2ccccc2)cc1` had an IC50 in experiment [3] above 25 µM.
`CCOCc1c(C(=O)OCC)cn2ncc(C#N)c(Nc3ccc(Oc4ccccc4)cc3)c12` gave an IC50 in experiment [3] of 0.331 µM.
`Cc1c(NC(=O)NCCN2CCOCC2)cn2ncc(C#N)c(Nc3ccc(Oc4ccccc4F)cc3)c12` had a half-inhibitory concentration (IC50) in experiment [3] of 0.033 µM.
Turning to `Cc1c(C(=O)O)cn2ncc(C#N)c(Nc3ccc(Oc4ccccc4)cc3)c12`, the IC50 in experiment [3] was determined as 0.147 µM.
As to `CCOC(=O)c1cn2ncc(C#N)c(Nc3ccccc3)c2c1C`, the IC50 in experiment [3] is above 25 µM.
Take `CCOC(=O)c1cn2ncc(C#N)c(Nc3ccc(-c4ccccc4)cc3)c2c1C`: the IC50 in experiment [3] was above 25 µM.
Take `COc1ccccc1Oc1ccc(Nc2c(C#N)cnn3cc(NC(=O)OCCN4CCOCC4)c(C)c23)cc1`: the Activity in experiment [1] stood at 2.06 µM; in experiment [2], 3.78 µM. Besides, in experiment [3], half-maximal inhibition (IC50) required 0.048 µM.
As to `CCOC(=O)c1cn2ncc(C#N)c(Nc3ccc(Oc4ccc(Cl)cc4)cc3)c2c1C`, the IC50 in experiment [3] was determined as 0.642 µM.
Consider `CC(=O)Nc1cccc(C(=O)Nc2cn3ncc(C#N)c(Nc4ccc(Oc5ccccc5)cc4)c3c2C)c1`, for which the Activity is 1.86 µM in experiment [1] and 1.34 µM in experiment [2]. Further, in experiment [3], the half-maximal inhibitory concentration (IC50) came out at 0.014 µM.
The compound `Cc1c(C(=O)O)cn2ncc(CNS(C)(=O)=O)c(Nc3ccc(Oc4ccccc4)cc3)c12` had an IC50 in experiment [3] above 25 µM.
The same measure, in the same setting: in the case of `Cc1c(N)cn2ncc(C#N)c(Nc3ccc(Oc4ccccc4)cc3)c12` it was 0.19 µM.
`Cc1ccn2ncc(C#N)c(Nc3ccc(Oc4ccccc4)cc3)c12`: the Activity in experiment [1] and in experiment [2] was above 10 µM in each case. This compound registered an IC50 in experiment [3] of 0.241 µM.
Turning to `Cc1c(NC(=O)NCCN2CCOCC2)cn2ncc(C#N)c(Nc3ccc(Oc4ccccc4)cc3)c12`, the inhibition – broadly, how much of the control response was suppressed – in experiment [4] was below 5%. Further, the Activity in experiment [1] came out at 3.9 µM; in experiment [2], 0.86 µM. The compound further yielded an IC50 in experiment [3] of 0.036 µM.
On to `Cc1c(OCCN2CCOCC2)cn2ncc(C#N)c(Nc3ccc(Oc4ccccc4)cc3)c12`, for which the midpoint of inhibition in experiment [3], the IC50, lay at 0.521 µM.
As to `Cc1c(NS(=O)(=O)c2ccccc2)cn2ncc(C#N)c(Nc3ccc(Oc4ccccc4)cc3)c12`, it took 14.6 µM to reach half-maximal inhibition in experiment [3] (IC50).
Regarding `Cc1c(C(=O)NCCN2CCOCC2)cn2ncc(C#N)c(Nc3ccc(Oc4ccccc4)cc3)c12`, the IC50 in experiment [3] was 0.386 µM.
`COc1ccccc1Oc1ccc(Nc2c(C#N)cnn3cc(NC(=O)NCCN4CCOCC4)c(C)c23)cc1`: 0.024 µM corresponded to half-maximal inhibition in experiment [3] (IC50).
Consider `Cc1c(C(C)(C)O)cn2ncc(C#N)c(Nc3ccc(Oc4ccccc4)cc3)c12`, for which the IC50 in experiment [3] was above 25 µM.
Still for that read-out and setting: in the case of `CCOC(=O)c1cn2ncc(C#N)c(Nc3ccc(Oc4ccccc4)cc3)c2c1COCCOC` it was 0.566 µM; in that of `CCOC(=O)c1cn2ncc(C#N)c(Nc3ccc(Nc4ccccc4)cc3)c2c1C`, 2.32 µM.
In experiment [3], `CCOC(=O)c1cn2ncc(C#N)c(Oc3ccc(Oc4ccccc4)cc3)c2c1C` came in with a half-maximal inhibitory concentration (IC50) of 5.42 µM.
In turn, `Cc1c(-c2nc3ccccc3[nH]2)cn2ncc(C#N)c(Nc3ccc(Oc4ccccc4)cc3)c12` returned an IC50 in experiment [3] of 0.168 µM.
Still for that read-out and setting: in the case of `CCOC(=O)c1cn2ncc(C#N)c(Nc3ccc(Cc4ccccc4)cc3)c2c1C` it was 0.068 µM; in that of `CCOC(=O)c1cn2ncnc(Nc3ccc(Oc4ccccc4)cc3)c2c1C`, 3.47 µM; in that of `Cc1c(C(=O)O)cn2ncc(CN)c(Nc3ccc(Oc4ccccc4)cc3)c12`, above 25 µM.
Same read-out and setting: in the case of `CCOC(=O)c1cn2ncc(C#N)c(Nc3ccc(OCc4ccccc4)cc3)c2c1C` it was above 25 µM.
In experiment [2], `CNC(=O)Nc1cn2ncc(C#N)c(Nc3ccc(Oc4ccccc4)cc3)c2c1C` returned an Activity of 7.38 µM. In addition, the IC50 in experiment [3] is 0.018 µM.
Consider `Cc1c(NC(=O)OCCN2CCOCC2)cn2ncc(C#N)c(Nc3ccc(Oc4ccccc4)cc3)c12`, for which, in experiment [4], the inhibition is below 5%. Further, the Activity in experiment [1] worked out at 2.88 µM; in experiment [2], 3.76 µM. The IC50 in experiment [3] stood at 0.058 µM.
Regarding `CCOC(=O)c1cn2ncc(C#N)c(Nc3ccc(Oc4ccccc4)cc3)c2c1CO`, in experiment [3], the IC50 came to 0.203 µM.
For `CCOC(=O)c1cn2ncc(C#N)c(NCc3ccc(Oc4ccccc4)cc3)c2c1C`, the IC50 in experiment [3] is above 25 µM.
For the compound `COc1cccc(Oc2ccc(Nc3c(C#N)cnn4cc(NC(=O)OCCN5CCOCC5)c(C)c34)cc2)c1`, the Activity in experiment [1] amounted to 0.72 µM; in experiment [2] it was 2.35 µM. Also, in experiment [3], 0.076 µM corresponded to half-maximal inhibition (IC50).
With `COC(=O)Nc1cn2ncc(C#N)c(Nc3ccc(Oc4ccccc4)cc3)c2c1C`, in experiment [2], the Activity came to 7.64 µM. Further, in experiment [3], the half-maximal inhibitory concentration (IC50) is 0.023 µM.
In turn, `CCOC(=O)c1cn2ncc(C#N)c(Nc3ccc(C(=O)c4ccccc4)cc3)c2c1C` yielded an IC50 in experiment [3] of 1.11 µM.
Same read-out and setting: in the case of `COc1cccc(Oc2ccc(Nc3c(C#N)cnn4cc(NC(=O)NCCN5CCOCC5)c(C)c34)cc2)c1` it was 0.029 µM.
